Data from US10654867B2 (Genentech, Inc., priority 2016, dated 2020).

These molecules were tested against T1, estrogen receptor alpha (ESR1) in MCF7 breast cancer cells (Homo sapiens, UniProt P03372) (assay: Breast Cancer Cell ERa High Content Fluorescence Imaging Degradation Assay (ER-alpha MCF7 HCS)). Conditions: 4 hours, plateau of the maximal effect, DMSO and fulvestrant define 0% and 100% change in ESR1, Table 1b.
T1 sequence (P03372 1-595): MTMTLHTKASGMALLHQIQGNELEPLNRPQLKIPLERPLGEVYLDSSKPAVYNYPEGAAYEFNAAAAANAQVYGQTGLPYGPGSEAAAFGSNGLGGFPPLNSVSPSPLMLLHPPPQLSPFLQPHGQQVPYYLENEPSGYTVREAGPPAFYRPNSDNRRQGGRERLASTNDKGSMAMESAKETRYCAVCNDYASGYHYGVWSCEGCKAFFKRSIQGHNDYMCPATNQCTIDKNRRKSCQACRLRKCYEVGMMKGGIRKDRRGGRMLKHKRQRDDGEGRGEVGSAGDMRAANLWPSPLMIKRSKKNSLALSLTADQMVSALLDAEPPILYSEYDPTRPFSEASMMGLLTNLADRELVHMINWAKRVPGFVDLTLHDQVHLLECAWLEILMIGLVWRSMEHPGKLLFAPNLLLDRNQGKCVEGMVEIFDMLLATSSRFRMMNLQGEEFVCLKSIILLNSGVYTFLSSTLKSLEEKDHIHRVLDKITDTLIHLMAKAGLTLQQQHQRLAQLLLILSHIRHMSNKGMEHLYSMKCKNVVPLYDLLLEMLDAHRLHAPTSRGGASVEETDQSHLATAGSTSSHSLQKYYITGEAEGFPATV
Type: cell-based
Parameters: MCF7 breast cancer cells were seeded on day 1 at a density of 10,000 cells per well; endogenous in cells; host or cells: MCF7 breast cancer cells
Procedure: All of the exemplary Formula I, II, and III compounds in Tables 1a and 1b were made and characterized by LCMS [M+H]^+ (liquid chromatography mass spectroscopy) with detection of parent ion. All of the exemplary Formula I, II, and III compounds in Tables 1a and 1b were tested for binding to ERa (Estrogen Receptor alpha) and biological activity according to the assays, protocols, and procedures of Examples 901-907. ER-alpha MCF7 HCS Sinf (%) values in Tables 1a and 1b were measured by the Breast Cancer Cell ERa High Content Fluorescence Imaging Degradation Assay of Example 901. ER-alpha MCF7 HCS EC50 (μM) values in Tables 1a and 1b were measured by the in vitro cell proliferation assays described in Examples 902 and 903. The rat uterine wet weight assays of Examples 906 and 907 allow rapid determination of compound antagonist activity in an ER responsive tissue (immature rat uterus) while competing against the native ER ligand estradiol, i.e. antagonist mode (Ashby, J.; et al (1997) Regulatory toxicology and pharmacology: RTP, 25 (3):226-31). […]
MCF7 breast cancer cells were seeded on day 1 at a density of 10,000 cells per well in 384 well poly-lysine coated tissue culture plate (Greiner # T-3101-4), in 50 μL/well RPMI (phenol red free), 10% FBS (Charcoal stripped), containing L-glutamine. […] Quantitative fluorescence imaging of ESR1 was carried out using a Cellomics Arrayscan V (Thermo). […]

Structure (SMILES) | ERalpha (WT) MCF7HCS (Sinf)
C[C@@H]1Cc2oc3ccccc3c2[C@@H](c2c(F)cc(OCCN3CC(CF)C3)cc2F)N1CC(F)(F)CO [Example 170] | −93

What follows are molecules tested against T1, estrogen receptor alpha (ESR1) in MCF7 breast cancer cells in the same assay as above. Conditions: 4 hours, plateau of the maximal effect, DMSO and fulvestrant define 0% and 100% change in ESR1, Table 1a.
Type: cell-based
Parameters: endogenous in cells; host or cells: MCF7 breast cancer cells; key to ERalpha (WT) MCF7HCS (Sinf): % change in ERα level; DMSO = 0%, fulvestrant = 100% change
Procedure, shortened: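 MCF7 cells in phenol red-free RPMI with 10% charcoal-stripped FBS were exposed 4 h at 37 °C to 10-point 1.8× dilutions (0.05–835 nM final, 0.84% DMSO); fulvestrant served as control. After fixation, ESR1 was immunostained (F10 mAb, Alexa488) with Hoechst nuclear masking, and nuclear ESR1 fluorescence was quantified by imaging.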

Structure (SMILES) | ER-alpha MCF7HCS Sinf [%]
CC1Cc2c(c3ccccc3n2C)C(c2c(F)cc(OCCN3CC(CF)C3)cc2F)N1CC(C)(C)F (racemic) [Example 139, (±)-1-(2-6-difluoro-4-(2-(3-(fluoromethyl)azetidin-1-yl)ethoxy)phenyl)-2-(2-fluoro-2-methylpropyl)-3,5-dimethyl-2,3,4,5-tetrahydro-1H-pyrido[4,3-b] indole] | −88.6
C[C@@H]1Cc2c([nH]c3ccccc23)[C@H]2c3c(F)cc(OCCN4CC(CF)C4)cc3OCC(F)(F)CN21 [Example 112, (10R,16bR)-1,7,7-Trifluoro-3-(2-(3-(fluoromethyl)azetidin-1-yl)ethoxy)-10-methyl-7,8,10,11,16,16b-hexahydro-6H-benzo[2′,3′][1,5]oxazocino[5′,4′:1,2]pyrido[3,4-b]indole] | −50
C[C@@H]1Cc2sc3ccccc3c2[C@@H](c2ccc(OCCN3CC(CF)C3)cc2)N1CC(C)(C)F [Example 128, (1R,3R)-2-(2-fluoro-2-methylpropyl)-1-(4-(2-(3-(fluoromethyl)azetidin-1-yl)ethoxy)phenyl)-3-methyl-1,2,3,4-tetrahydrobenzo[4,5]thieno[3,2-c]pyridine] | −101
C[C@@H]1Cc2[nH]c3ccccc3c2[C@@H](c2c(F)cc(NC3CN(CCCF)C3)cc2F)N1CC(F)F [Example 150, N-(4-((1S,3R)-2-(2,2-difluoroethyl)-3-methyl-2,3,4,5-tetrahydro-1H-pyrido[4,3-b]indol-1-yl)-3,5-difluorophenyl)-1-(3-fluoropropyl) azetidin-3-amine] | −99.4
C[C@H]1Cc2[nH]c3ccccc3c2[C@H](c2c(F)cc(NC3CN(CCCF)C3)cc2F)N1CC(F)(F)F [Example 153, N-(3,5-difluoro-4-((1R,3S)-3-methyl-2-(2,2,2-trifluoroethyl)-2,3,4,5-tetrahydro-1H-pyrido[4,3-b]indol-1-yl)-phenyl)-1-(3-fluoropropyl) azetidin-3-amine] | −30
C[C@](F)(CO)CN1CCCc2c([nH]c3ccccc23)[C@H]1c1c(F)cc(OCCN2CC(CF)C2)cc1F [Example 118, (R)-3-((R)-1-(2,6-difluoro-4-(2-(3-(fluoromethyl)azetidin-1-yl)ethoxy)phenyl)-3,4,5,10-tetrahydroazepino[3,4-b]indol-2(1H)-yl)-2-fluoro-2-methylpropan-1-ol] | −95.9
C[C@@H]1CN(CC(C)(C)F)[C@@H](c2c(F)cc(OCCN3CC(CF)C3)cc2F)c2[nH]c3ccccc3c21 (single isomer, unassigned) [Example 109] | −74.6
CC(C)(F)CN1[C@H](c2c(F)cc(OCCN3CC(CF)C3)cc2F)c2[nH]c3ccccc3c2[C@H]2CC[C@H]21 [Example 138, (2aR,4R,9cR)-4-(2,6-difluoro-4-(2-(3-(fluoromethyl)azetidin-1-yl)ethoxy)phenyl)-3-(2-fluoro-2-methylpropyl)-2,2a,3,4,5,9c-hexahydro-1H-cyclobuta[5,6]pyrido[3,4-b]indole] | −68
C[C@@H]1Cc2c([nH]c3ccccc23)[C@]2(Cc3ccc(OC4CN(CCCF)C4)cc3C2)N1CC(F)(F)F [Example 140] | −15

Same assay, conditions: 4 hours, plateau of the maximal effect, DMSO and fulvestrant define 0% and 100% change in ESR1, Table 1b

Structure (SMILES) | ERalpha (WT) MCF7HCS (Sinf)
COc1cc2c3c([nH]c2cn1)[C@@H](c1c(F)cc(NC2CN(CCCF)C2)cc1F)N(CC(F)(F)CO)[C@H](C)C3 [Example 161, 3-((1R,3R)-1-(2,6-Difluoro-4-((1-(3-fluoropropyl)azetidin-3-yl)amino)phenyl)-6-methoxy-3-methyl-3,4-dihydro-1H-pyrrolo[2,3-c:5,4-c′]dipyridin-2(9H)-yl)-2,2-difluoropropan-1-ol] | −97.3
C[C@@H]1Cn2c(cc3ccccc32)[C@@H](c2c(F)cc([C@@H](O)C3CN(CCCF)C3)cc2F)N1CC(F)(F)CO (single isomer, unassigned) [Example 163] | −100
